Reference: US9980953B2, “Combined composition for preventing or treating cancer comprising a benzophenone thiazole derivatives as a VDA and topoisomerase inhibitor” (CHONG KUN DANG PHARMACEUTICAL CORP., priority 2016, dated 2018)

Legend:
[1] = test system: Colo205 xenograft; assay: Anti-cancer effect in a Colo205 xenograft mouse model; format: in vivo, BALB/c-nu/nu male mice; conditions: irinotecan 20 mg/kg once per 4 days injection; for size of tumor compared to administration group of an excipient: formula 1 4 mg/kg every day oral, during administration period (10 weeks); for dead mice: observed for 85 days, formula 1 4 mg/kg daily oral
Excerpt: A human colorectal cancer cell line, Colo205 was purchased from ATCC (USA). The Colo205 cell line was maintained with RPMI1640 (Gibco, USA) including 10% fetal bovine serum (FBS; Gibco, Grand Island, N.Y., USA) and 1% antibiotics (Gibco, USA).
The human colorectal carcinoma, Colo205 cell was subcutaneously administered in BALB/c-nu/nu male mice (5×10^6 cell/head), and after grouping in order to making an average size of tumor 165˜167 mm^3, used in experiments.
A compound of formula 1 was prepared by the preparation method disclosed in International Laid-open Patent Publication WO 2009-119980, and prepared at 0.4 mg/ml concentration by dissolving with distilled water.
Irinotecan (Boryung, Korea) was prepared at 2 mg/ml concentration by diluting with 5% glucose saline solution. The solution to be used was prepared on the day of use, and remained solution was discarded.
The anti-cancer effect of the compound of formula 1 and irinotecan was estimated in the Colo205 xenograft model. Experimental groups were divided into the following administration groups. • Control group: vehicle • Single administration group of the compound of formula 1: the compound of formula 1 (4 mg/kg, every day, oral) • Single administration group of irinotecan: irinotecan (20 mg/kg, once per 4 days, injection) • Coadministration group: the compound of formula 1 (4 mg/kg, every day, oral), irinotecan (20 mg/kg, once per 4 days, injection)
(§1) All the experimental groups were orally and intraperitoneally administered for 10 weeks. Toxicity was observed by measuring weight of mice, and the growth of tumor was measured using calipers during experimental period. The volume of tumor was calculated according to the following calculation formula. tumor volume=(length×width^2)/2
The data of size of tumor, regression of tumor, and body weight changes was tested using Bartlett's test at significance level α=0.05, and as a result of the test, data having no significance was tested using one-way analysis of variance at significance level α=0.05, and data having significance was tested using Kruskal-Wallis test at significance level α=0.05.
Statistical analysis between each group was performed using GraphPad PRISM® Version 5.0 (GraphPad Software, USA).
Vehicle administration group was euthanized at the day 43 because cancer became too big.

[2] = test system: HCT116 xenograft; assay: Anti-cancer effect in a HCT116 xenograft mouse model; format: in vivo, Athymic nude mouse (Hsd:Athymic Nude-Foxn1nu) male mice; conditions: formula 1 5 mg/kg once a week injection, irinotecan 20 mg/kg once per 4 days injection, intraperitoneal, 4 weeks
Experimental: A human colorectal cancer cell line, HCT116 was purchased from ATCC (USA). The HCT116 cell line was maintained with RPMI1640 (Gibco, USA) including 10% fetal bovine serum (FBS; Gibco, USA).
The human colorectal carcinoma, HCT116 cell was subcutaneously administered in Athymic nude mouse (Hsd:Athymic Nude-Foxn1^nu) male mice (5×10^6 cell/head), and used in experiments when the size of tumor became 150-200 mm^3.
A compound of formula 1 was prepared by the preparation method disclosed in International Laid-open Patent Publication WO 2009-119980, and prepared at 0.5 mg/ml concentration by dissolving with 0.9% saline solution.
Irinotecan (Jeilpharm, Korea) was prepared at 2 mg/ml concentration by diluting with 5% dextrose solution.
The anti-cancer effect of the compound of formula 1 and irinotecan was estimated in the HCT116 xenograft model. […]
as §1, with “were” for “were orally and”, “4” for “10”, “volume=(length×width^2)/2 […]” for “volume=(length×width^2)/2”

Row | Compound | size of tumor compared to administration group of an excipient [1] | dead mice [1] | size of tumor compared to administration group of an excipient [2]
1 | COc1cc(C(=O)c2ccc(-c3csc(NC(=O)[C@@H](N)C(C)C)n3)cc2-n2cncn2)cc(OC)c1OC [compound of formula 1, (S)-N-(4-(3-(1H-1,2,4-triazol-1-yl) -4-(3,4,5-trimethoxybenzoyl)phenyl)thiazol-2-yl)-2-amino-3-methylbutanamide] | significantly decreased | 8 mice | significantly decreased
2 | CCc1c2c(nc3ccc(OC(=O)N4CCC(N5CCCCC5)CC4)cc13)-c1cc3c(c(=O)n1C2)COC(=O)[C@]3(O)CC [irinotecan] | significantly decreased | no dead subject | significantly decreased
